Assays:
[1] = test system: Reserpine-Induced Dopamine Depletion—Mice; settings: mouse, in vivo; cited from earlier work
[2] = target: complex formation between Aβ(1–42) and α7-nAChR (Rattus norvegicus, UniProt Q05941); assay type: cell-based
[3] = target: JAK2 complex formation with the α7 receptor (Rattus norvegicus, UniProt Q05941)
caspase 3 = assay type: cell-based, rat
JAK2 = assay type: cell-based
[4] = test system: 6-OHDA (Partial Lesion)—Rats; settings: rat, in vivo, sc, 1 mg/kg; cited from earlier work
PC12 cells = assay type: cell-based, rat
[5] = test system: methamphetamine toxicity in mice; settings: mouse, in vivo; cited from earlier work
MPTP effects, Mice = settings: mouse, in vivo; cited from earlier work
Akt = assay type: cell-based, rat
PI-3 kinase = assay type: cell-based, rat
[6] = test system: poly-(ADP-ribose)polymerase (PARP); assay type: cell-based, rat
ganglionic subtype α3β4 = ganglionic subtype α3β4 (Homo sapiens, UniProt P30926+P32297); assay type: cell-based
α7 = α7 (Homo sapiens, UniProt P36544); experiment: biochemical; assay type: binding
α4β2 = α4β2 (Homo sapiens, UniProt P17787+P43681); assay type: cell-based
α3β2 = α3β2 (Homo sapiens, UniProt P17787+P32297); assay type: cell-based
muscle subtype α1β1γδ = muscle subtype α1β1γδ (Homo sapiens, UniProt P02708+P07510+Q07001); assay type: cell-based
α7 nAChR = α7 nAChR (Homo sapiens, UniProt P36544); assay type: cell-based

complex formation between Aβ(1–42) and α7-nAChR, sequence (Q05941 23-502, one chain of several): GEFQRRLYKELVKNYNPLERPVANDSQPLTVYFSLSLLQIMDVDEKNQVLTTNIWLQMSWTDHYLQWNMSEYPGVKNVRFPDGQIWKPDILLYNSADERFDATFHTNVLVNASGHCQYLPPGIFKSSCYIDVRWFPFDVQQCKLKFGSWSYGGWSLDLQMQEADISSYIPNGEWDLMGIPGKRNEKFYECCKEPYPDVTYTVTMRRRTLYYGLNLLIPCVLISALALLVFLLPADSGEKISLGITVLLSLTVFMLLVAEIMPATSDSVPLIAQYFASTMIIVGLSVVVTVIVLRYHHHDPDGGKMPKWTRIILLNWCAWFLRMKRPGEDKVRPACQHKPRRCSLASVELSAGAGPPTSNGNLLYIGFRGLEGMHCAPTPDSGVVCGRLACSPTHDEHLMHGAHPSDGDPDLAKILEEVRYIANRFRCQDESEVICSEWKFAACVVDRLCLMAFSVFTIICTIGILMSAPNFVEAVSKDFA
muscle subtype α1β1γδ, sequence (P07510 23-517): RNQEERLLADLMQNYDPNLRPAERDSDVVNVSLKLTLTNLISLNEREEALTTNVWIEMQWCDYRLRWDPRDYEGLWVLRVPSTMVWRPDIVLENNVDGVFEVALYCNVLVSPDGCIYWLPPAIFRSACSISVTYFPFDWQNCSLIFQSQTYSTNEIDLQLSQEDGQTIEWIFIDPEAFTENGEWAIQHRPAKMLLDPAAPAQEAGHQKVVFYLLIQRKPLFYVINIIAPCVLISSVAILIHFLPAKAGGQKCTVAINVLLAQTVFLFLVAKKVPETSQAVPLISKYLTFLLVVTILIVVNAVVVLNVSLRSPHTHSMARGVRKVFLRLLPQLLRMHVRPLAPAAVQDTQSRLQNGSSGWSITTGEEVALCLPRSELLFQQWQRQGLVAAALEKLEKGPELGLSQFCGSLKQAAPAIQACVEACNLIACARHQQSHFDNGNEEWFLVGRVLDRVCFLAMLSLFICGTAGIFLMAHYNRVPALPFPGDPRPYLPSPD
muscle subtype α1β1γδ, sequence (Q07001 22-517): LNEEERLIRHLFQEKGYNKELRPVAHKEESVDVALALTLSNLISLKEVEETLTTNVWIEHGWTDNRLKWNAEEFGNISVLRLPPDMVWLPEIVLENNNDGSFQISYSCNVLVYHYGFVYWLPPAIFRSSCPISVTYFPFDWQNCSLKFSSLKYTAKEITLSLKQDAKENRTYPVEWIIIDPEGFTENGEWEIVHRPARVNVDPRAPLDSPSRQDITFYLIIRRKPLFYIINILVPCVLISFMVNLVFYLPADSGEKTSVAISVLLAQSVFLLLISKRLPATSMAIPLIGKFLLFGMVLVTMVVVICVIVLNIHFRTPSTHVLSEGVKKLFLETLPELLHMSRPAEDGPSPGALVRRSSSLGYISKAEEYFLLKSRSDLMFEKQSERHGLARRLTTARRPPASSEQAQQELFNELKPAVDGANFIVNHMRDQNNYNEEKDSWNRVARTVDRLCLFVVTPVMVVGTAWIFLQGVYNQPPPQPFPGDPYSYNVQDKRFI
muscle subtype α1β1γδ, sequence (P02708 21-457): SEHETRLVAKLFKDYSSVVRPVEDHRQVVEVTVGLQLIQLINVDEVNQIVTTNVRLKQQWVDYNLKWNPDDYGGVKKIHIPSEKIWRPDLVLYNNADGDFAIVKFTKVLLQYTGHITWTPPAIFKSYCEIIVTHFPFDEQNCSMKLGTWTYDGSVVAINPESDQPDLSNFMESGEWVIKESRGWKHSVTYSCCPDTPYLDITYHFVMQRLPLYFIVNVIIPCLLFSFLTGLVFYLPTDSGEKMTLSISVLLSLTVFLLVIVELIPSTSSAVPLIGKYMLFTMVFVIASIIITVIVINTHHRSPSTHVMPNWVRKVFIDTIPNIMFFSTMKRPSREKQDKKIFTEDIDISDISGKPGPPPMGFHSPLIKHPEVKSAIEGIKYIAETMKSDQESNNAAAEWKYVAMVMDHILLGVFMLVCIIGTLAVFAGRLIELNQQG
muscle subtype α1β1γδ, sequence (P11230 24-501, further chain): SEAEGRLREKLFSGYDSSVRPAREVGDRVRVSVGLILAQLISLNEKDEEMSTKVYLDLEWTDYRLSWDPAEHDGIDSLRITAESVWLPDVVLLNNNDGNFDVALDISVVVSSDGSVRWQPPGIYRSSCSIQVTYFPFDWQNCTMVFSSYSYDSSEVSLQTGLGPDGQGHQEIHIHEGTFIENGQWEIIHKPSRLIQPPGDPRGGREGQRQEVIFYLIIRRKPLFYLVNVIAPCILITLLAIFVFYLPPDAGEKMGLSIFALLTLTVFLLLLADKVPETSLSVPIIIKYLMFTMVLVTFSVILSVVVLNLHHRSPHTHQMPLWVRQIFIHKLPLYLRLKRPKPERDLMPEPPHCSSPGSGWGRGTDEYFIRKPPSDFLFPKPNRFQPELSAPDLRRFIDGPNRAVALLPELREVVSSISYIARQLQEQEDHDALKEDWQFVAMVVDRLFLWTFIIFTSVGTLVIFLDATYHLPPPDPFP
JAK2 complex formation with the α7 receptor, sequence (Q05941 23-502): as the sequence (Q05941 23-502, one chain of several) above
JAK2 complex formation with the α7 receptor, sequence (Q62689 whole entry, further chain): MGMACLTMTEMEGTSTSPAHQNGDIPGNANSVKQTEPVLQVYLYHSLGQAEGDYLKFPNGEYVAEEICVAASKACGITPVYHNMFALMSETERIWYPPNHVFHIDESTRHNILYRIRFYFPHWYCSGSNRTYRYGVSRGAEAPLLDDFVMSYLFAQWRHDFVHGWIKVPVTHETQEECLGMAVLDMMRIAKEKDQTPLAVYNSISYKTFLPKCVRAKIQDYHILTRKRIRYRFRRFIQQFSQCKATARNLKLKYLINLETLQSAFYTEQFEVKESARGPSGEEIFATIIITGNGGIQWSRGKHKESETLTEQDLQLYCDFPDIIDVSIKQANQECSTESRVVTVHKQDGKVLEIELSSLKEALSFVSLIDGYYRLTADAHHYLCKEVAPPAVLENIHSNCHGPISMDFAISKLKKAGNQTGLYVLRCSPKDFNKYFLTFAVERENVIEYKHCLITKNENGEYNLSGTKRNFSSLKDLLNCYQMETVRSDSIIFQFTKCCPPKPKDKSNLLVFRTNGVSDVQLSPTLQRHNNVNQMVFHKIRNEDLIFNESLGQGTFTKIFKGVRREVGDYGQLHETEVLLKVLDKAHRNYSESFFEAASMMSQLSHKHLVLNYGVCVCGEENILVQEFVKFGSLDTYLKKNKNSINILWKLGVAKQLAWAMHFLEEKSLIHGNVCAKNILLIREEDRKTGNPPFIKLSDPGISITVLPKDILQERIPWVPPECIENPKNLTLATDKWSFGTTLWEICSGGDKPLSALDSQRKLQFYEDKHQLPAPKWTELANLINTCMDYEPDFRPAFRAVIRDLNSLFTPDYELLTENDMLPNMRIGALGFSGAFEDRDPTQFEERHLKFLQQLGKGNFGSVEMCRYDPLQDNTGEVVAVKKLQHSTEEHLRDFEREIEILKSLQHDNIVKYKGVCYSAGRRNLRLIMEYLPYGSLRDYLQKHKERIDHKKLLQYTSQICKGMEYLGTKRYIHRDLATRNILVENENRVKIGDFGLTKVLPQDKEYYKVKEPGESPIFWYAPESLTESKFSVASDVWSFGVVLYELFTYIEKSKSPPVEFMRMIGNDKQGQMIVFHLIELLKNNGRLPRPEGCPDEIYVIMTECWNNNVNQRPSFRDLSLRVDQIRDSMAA
α4β2, sequence (P43681 29-627): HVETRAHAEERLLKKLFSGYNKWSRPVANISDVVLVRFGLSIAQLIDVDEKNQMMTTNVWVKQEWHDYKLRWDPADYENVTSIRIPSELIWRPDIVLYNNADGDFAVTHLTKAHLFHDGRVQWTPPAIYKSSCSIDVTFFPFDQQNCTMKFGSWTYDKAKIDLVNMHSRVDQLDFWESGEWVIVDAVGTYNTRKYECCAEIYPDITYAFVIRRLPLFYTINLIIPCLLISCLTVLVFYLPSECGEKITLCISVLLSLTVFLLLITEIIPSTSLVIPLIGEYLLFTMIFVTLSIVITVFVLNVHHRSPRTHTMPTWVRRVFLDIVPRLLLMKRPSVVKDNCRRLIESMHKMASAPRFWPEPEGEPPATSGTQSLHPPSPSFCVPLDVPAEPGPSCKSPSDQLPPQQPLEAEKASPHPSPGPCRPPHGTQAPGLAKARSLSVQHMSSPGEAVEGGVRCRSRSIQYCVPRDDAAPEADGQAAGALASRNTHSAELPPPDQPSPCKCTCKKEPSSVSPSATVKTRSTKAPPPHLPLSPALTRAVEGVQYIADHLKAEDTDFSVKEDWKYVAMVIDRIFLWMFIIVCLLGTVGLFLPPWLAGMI
α4β2, sequence (P17787 26-502): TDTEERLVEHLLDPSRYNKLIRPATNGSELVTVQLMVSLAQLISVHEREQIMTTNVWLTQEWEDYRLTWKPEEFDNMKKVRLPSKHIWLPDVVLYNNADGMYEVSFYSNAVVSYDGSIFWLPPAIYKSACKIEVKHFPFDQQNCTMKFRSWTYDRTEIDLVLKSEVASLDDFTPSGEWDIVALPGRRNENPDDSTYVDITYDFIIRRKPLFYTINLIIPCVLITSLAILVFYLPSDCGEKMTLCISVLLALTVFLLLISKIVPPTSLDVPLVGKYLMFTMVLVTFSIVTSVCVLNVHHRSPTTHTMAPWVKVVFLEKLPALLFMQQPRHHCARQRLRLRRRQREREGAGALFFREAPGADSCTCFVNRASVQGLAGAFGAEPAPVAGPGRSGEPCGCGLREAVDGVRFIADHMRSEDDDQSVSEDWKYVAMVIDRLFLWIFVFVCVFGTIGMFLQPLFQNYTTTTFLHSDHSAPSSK

## CNC1(C)C2CCC(C2)C1(C)C (stereo not shown) [mecamylamine]
[1]
  effect on NIC blockade of reserpine-induced dopamine depletion: blocked

## CN1CCCC1c1cccnc1 (stereo not shown) [nicotine]
[2]
  effect on co-immunoprecipitation (complex formation) of Aβ(1–42) and α7-nAChR: blocked
[3]
  time to association of JAK2 with the α7 receptor: ≤ 5 min
Caspase 3; PC12 cells, nicotine 10 μM, Aβ(1–42) 100 nM, P<0.01
  effect on Aβ(1–42)-induced activation of caspase 3: blocked
JAK2
  time to JAK2 tyrosine phosphorylation: 5 to 10 min
[1]
  reserpine-induced dopamine depletion: blocked
[4]
  dopaminergic neurotoxicity (loss of striatal dopamine) induced by 6-OHDA: attenuates
PC12 cells; PC12 cells, Ang II 100 nM, 8 hours
  effect on Ang II-induced apoptosis (cell number): not affected
PC12 cells; PC12 cells, Aβ(1–42) 100 nM, 8 hours
  effect on Aβ(1–42)-induced cell death when co-incubated with AG-490: no effect
PC12 cells; PC12 cells, Aβ(1–42) 100 nM, 8 hours, P<0.01
  effect on cell death induced by Aβ(1–42): significantly reduced
[5]
  methamphetamine toxicity (brain levels): prevents
MPTP effects, Mice
  striatal MPP+ levels induced by MPTP: reduces

## C[N+](C)(C)CCCCCC[N+](C)(C)C [hexamethonium]
[1]
  effect on NIC blockade of reserpine-induced dopamine depletion: not

## N#C/C(=C/c1ccc(O)c(O)c1)C(=O)NCc1ccccc1 [AG-490]
[2]
  effect on co-immunoprecipitation (complex formation) of Aβ(1–42) and α7-nAChR: prevented
Akt
  effect on TC-1698-induced activation of Akt: suppression of activation
  effect on nicotine-induced serine phosphorylation of Akt: inhibits
Caspase 3
  effect on nicotine inhibition of Aβ(1–42)-induced caspase 3 activation: prevented
PI-3 kinase
  effect on TC-1698-induced activation of PI-3 Kinase: suppression of activation
  effect on nicotine-induced tyrosine phosphorylation of PI-3K: inhibits
JAK2
  effect on TC-1698-induced activation of JAK2: suppression of activation
  effect on basal and nicotine-stimulated JAK2 tyrosine phosphorylation: inhibits

## Aβ(1–42)
Caspase 3
  caspase 3 activity: significant increase
PC12 cells
  PC12 cell number: significant decrease
[6]
  PARP cleavage / induction: cleaved

## c1cncc(C2CCC3CCN2CC3)c1 (stereo not shown) [TC-1698, 2-Pyridin-3-yl-1-aza-bicyclo[3.2.2]nonane]
Ganglionic subtype α3β4
  activation of ganglionic subtype α3β4: does not activate
Akt
  activation of Akt: activation
α7
  Ki: 0.8 nM
α4β2
  activation of neuronal subtype α4β2: does not activate
PI-3 kinase
  activation of PI-3 Kinase: activation
JAK2
  phosphorylation of Jak-2: induces phosphorylation of Jak-2
α3β2
  activation of neuronal subtype α3β2: does not activate
Muscle subtype α1β1γδ
  activation of muscle subtype α1β1γδ: does not activate
α7 nAChR
  potency in activating α7 nAChR relative to acetylcholine: 50 fold

## Ang II (DRVYIHPF; Angiotensin-2; UniProt P01019 25-32, looked up)
JAK2
  effect of preincubation on nicotine-induced tyrosine phosphorylation of JAK2: blocks
PC12 cells
  PC12 cell number: significantly reduced
  effect on nicotine-induced neuroprotection (cell viability): complete reversal
[6]
  PARP cleavage / induction: nicotine-insensitive PARP induction

Source: patent publication US7067261B2 (priority 2001, dated 2006)
